Assay results as given in the supplement of paper PMC10307832.

Columns and labels:
Experiment in all cases: relative viability (nuclei count vs DMSO), 5 days (fraction); higher = more cells survive
[1] = compound: O=C(Nc1cccc(C(F)(F)F)c1)Nc1cc(S(=O)(=O)NC2CC2)ccc1-c1ccsc1 [AGI-6780] + CC1(C)CCC(c2ccc(Cl)cc2)=C(CN2CCN(c3ccc(C(=O)NS(=O)(=O)c4ccc(N[C@H](CCN5CCOCC5)CSc5ccccc5)c(S(=O)(=O)C(F)(F)F)c4)cc3)CC2)C1 [Navitoclax] (partner 0.5 µM)
In short: (§1)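 One day after seeding in 1536-well plates, lung cancer cell lines were dosed by pin tool. Dosing was either single-drug or a fixed anchor-drug dose plus five library-drug doses (not always all listed) in √10 steps. After 5 days, nuclei were stained in one fix-and-stain step and counted on 4× images, and relative viability is the nuclei count of treated wells over that of vehicle wells, given as the median of duplicate plates.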

[2] = compound: O=C(Nc1cccc(C(F)(F)F)c1)Nc1cc(S(=O)(=O)NC2CC2)ccc1-c1ccsc1 [AGI-6780] + Nc1nc2[nH]cc(CCc3ccc(C(=O)N[C@@H](CCC(=O)O)C(=O)O)cc3)c2c(=O)[nH]1 [Pemetrexed] (partner 0.2 µM)
In short: as §1

[3] = compound: O=C(Nc1cccc(C(F)(F)F)c1)Nc1cc(S(=O)(=O)NC2CC2)ccc1-c1ccsc1 [AGI-6780] + O=C(CCCCCCC(=O)Nc1ccccc1)NO [Vorinostat] (partner 1 µM)
In short: as §1

[4] = compound: O=C(Nc1cccc(C(F)(F)F)c1)Nc1cc(S(=O)(=O)NC2CC2)ccc1-c1ccsc1 [AGI-6780] + C[C@]1(O)C[C@@H](c2nc(-c3ccc4ccc(-c5ccccc5)nc4c3)c3c(N)nccn32)C1 [Linsitinib] (partner 1 µM)
In short: as §1

| Cell Line | relative viability ([1]; first compound 0.08 µM) | relative viability ([1]; first compound 0.253 µM) | relative viability ([1]; first compound 0.8 µM) | relative viability ([1]; first compound 2.53 µM) | relative viability ([1]; first compound 8 µM) | relative viability ([2]; first compound 0.08 µM) | relative viability ([2]; first compound 0.253 µM) | relative viability ([2]; first compound 0.8 µM) | relative viability ([2]; first compound 2.53 µM) | relative viability ([2]; first compound 8 µM) | relative viability ([3]; first compound 0.08 µM) | relative viability ([3]; first compound 0.253 µM) | relative viability ([3]; first compound 0.8 µM) | relative viability ([3]; first compound 2.53 µM) | relative viability ([3]; first compound 8 µM) | relative viability ([4]; first compound 0.08 µM) | relative viability ([4]; first compound 0.253 µM) | relative viability ([4]; first compound 0.8 µM) | relative viability ([4]; first compound 2.53 µM) | relative viability ([4]; first compound 8 µM) |
| --- | --- | --- | --- | --- | --- | --- | --- | --- | --- | --- | --- | --- | --- | --- | --- | --- | --- | --- | --- | --- |
| LOU-NH91 | 0.718 | 0.735 | 0.698 | 0.575 | 0.775 | 0.402 | 0.395 | 0.382 | 0.389 | 0.429 | 0.954 | 0.92 | 0.953 | 0.926 | 0.913 | 0.99 | 0.921 | 0.857 | 0.901 | 0.93 |
| LU99A | 0.786 | 0.842 | 0.823 | 0.741 | 0.809 | 0.193 | 0.162 | 0.196 | 0.195 | 0.163 | 0.568 | 0.461 | 0.502 | 0.335 | 0.466 | 0.581 | 0.57 | 0.54 | 0.498 | 0.565 |
| LXF-289 | 0.967 | 0.939 | 0.936 | 0.987 | 0.939 | 0.912 | 0.763 | 0.964 | 1.04 | 0.919 | 0.858 | 0.788 | 0.736 | 0.843 | 0.778 | 0.952 | 1.01 | 1.01 | 1.01 | 0.897 |
| NCI-H23 | 0.844 | 0.951 | 0.835 | 0.555 | 0.802 | 0.568 | 0.733 | 0.758 | 0.787 | 0.799 | 0.61 | 0.74 | 0.735 | 0.614 | 0.508 | 0.622 | 0.582 | 0.693 | 0.39 | 0.672 |
| NCI-H322M | 1.11 | 1.14 | 1.28 | 1.24 | 1.21 |  | 0.669 | 0.622 | 0.636 | 0.585 |  | 0.956 | 1.03 | 0.855 | 0.855 | 0.883 | 0.969 | 1.03 | 0.772 | 0.878 |
| NCI-H441 | 0.702 | 0.993 | 0.604 | 0.487 | 0.663 | 0.288 | 0.241 | 0.236 | 0.25 | 0.248 | 0.748 | 0.711 | 0.853 | 0.547 | 0.676 | 0.498 | 0.528 | 0.461 | 0.424 | 0.459 |
| NCI-H460 | 1.14 | 1.03 | 1.04 | 1.14 | 1.14 | 0.0559 | 0.0709 | 0.0574 | 0.0584 | 0.0641 | 0.787 | 0.678 | 0.779 | 0.658 | 0.659 | 0.796 | 0.788 | 0.936 | 0.741 | 0.72 |
| NCI-H520 | 1.04 | 1.12 | 1.18 | 1.05 | 1.05 | 0.803 | 0.625 | 0.669 | 0.586 | 0.637 | 0.694 | 0.71 | 0.91 | 0.64 | 0.764 | 1.04 | 0.959 | 0.979 | 0.753 | 1.04 |
| NCI-H596 | 0.91 | 1.02 | 0.927 | 0.774 | 0.929 | 0.456 | 0.492 | 0.472 | 0.469 | 0.479 | 0.519 | 0.533 | 0.602 | 0.502 | 0.642 | 1.24 | 1.09 | 0.961 | 0.931 | 1.12 |
| NCI-H647 | 1.2 | 1.22 | 1.33 | 1.09 | 1.19 | 0.173 | 0.192 | 0.119 | 0.2 | 0.178 | 0.734 | 0.628 | 0.942 | 0.572 | 0.752 | 1.17 | 1.19 | 1.12 | 1.14 | 1.2 |
| NCI-H838 | 1.19 | 1.09 | 1.17 | 1.06 | 1.11 | 0.258 | 0.251 | 0.249 | 0.23 | 0.225 | 0.801 | 0.687 | 0.738 | 0.647 | 0.672 | 1.12 | 0.964 | 1.07 | 0.851 | 0.908 |
| NCI-H1355 | 1.01 | 1.05 | 0.984 | 0.932 | 0.946 | 1.07 | 1.17 | 1.02 | 0.937 | 1 | 0.696 | 0.724 | 0.671 | 0.569 | 0.687 | 0.842 | 0.835 | 0.831 | 0.665 | 0.821 |
| NCI-H1395 | 1.25 | 1.17 | 1.2 |  | 1.23 | 0.779 | 0.975 | 0.945 | 0.729 | 0.843 | 0.714 | 0.726 | 0.826 | 0.618 | 0.701 | 1.14 | 1.16 | 1.12 |  | 1.14 |
| NCI-H1437 | 1.19 | 1.06 | 1.12 | 1.07 | 0.966 | 0.338 | 0.309 | 0.356 | 0.346 | 0.314 | 0.818 | 0.856 | 0.827 | 0.751 | 0.636 | 1.11 | 1.01 | 1.07 | 1.03 | 0.983 |
| NCI-H1651 | 1.04 | 1.13 | 1.01 | 0.912 | 0.906 | 0.542 | 0.643 | 0.633 | 0.556 | 0.623 | 0.481 | 0.568 | 0.509 | 0.545 | 0.661 | 0.959 | 0.966 | 0.982 | 0.876 | 0.837 |
| NCI-H1666 | 0.985 | 0.894 | 0.909 |  | 0.92 | 0.9 | 1.02 | 0.847 | 1.02 | 0.863 | 1.01 | 0.996 | 1.04 | 0.902 | 1.06 | 0.947 | 0.92 | 0.811 |  | 0.927 |
